Results on 21 compounds are retold here after ChEMBL document CHEMBL4420071, “Method for treating skin with retinoids and retinoid boosters” (2013).

Test [1] addresses T1, Diacylglycerol O-acyltransferase 1 (Bos taurus) (UniProt Q8MK44).
T1 sequence (whole entry): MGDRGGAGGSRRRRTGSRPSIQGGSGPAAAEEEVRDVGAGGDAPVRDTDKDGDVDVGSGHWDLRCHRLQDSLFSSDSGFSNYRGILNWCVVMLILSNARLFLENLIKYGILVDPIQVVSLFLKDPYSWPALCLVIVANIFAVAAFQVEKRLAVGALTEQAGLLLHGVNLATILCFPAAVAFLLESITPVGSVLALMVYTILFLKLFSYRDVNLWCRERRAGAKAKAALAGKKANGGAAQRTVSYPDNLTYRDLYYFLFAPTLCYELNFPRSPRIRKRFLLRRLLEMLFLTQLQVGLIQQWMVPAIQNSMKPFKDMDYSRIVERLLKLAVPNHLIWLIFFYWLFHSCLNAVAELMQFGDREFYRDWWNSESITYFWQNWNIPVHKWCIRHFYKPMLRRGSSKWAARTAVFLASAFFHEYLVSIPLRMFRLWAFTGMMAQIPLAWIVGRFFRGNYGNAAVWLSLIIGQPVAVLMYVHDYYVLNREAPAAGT
The following applies: at 100 µM.
Description: Inhibition of ARAT in bovine RPE microsomes at 100 uM using retinol substrate in presence of dilauroyl-phosphatidyl choline incubated for 5 mins by HPLC analysis relative to control

Test [2] deals with T2, Lecithin retinol acyltransferase (Bos taurus) (UniProt Q9BGL2).
T2 sequence (whole entry): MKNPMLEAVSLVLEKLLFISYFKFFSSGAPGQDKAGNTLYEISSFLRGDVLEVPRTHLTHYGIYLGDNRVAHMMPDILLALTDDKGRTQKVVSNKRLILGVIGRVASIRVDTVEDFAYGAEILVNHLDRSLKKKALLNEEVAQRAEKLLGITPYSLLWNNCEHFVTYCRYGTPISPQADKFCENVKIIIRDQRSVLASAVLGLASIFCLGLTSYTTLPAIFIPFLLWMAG
As to conditions: at 100 µM.
Description: Inhibition of LRAT in bovine RPE microsomes at 100 uM using retinol substrate in presence of Palmitoyl-CoA incubated for 5 mins by HPLC analysis relative to control

Test [3] addresses T2, Lecithin retinol acyltransferase (Bos taurus). Nature of the test: Inhibition of LRAT in bovine RPE microsomes at 10 uM using retinol substrate in presence of Palmitoyl-CoA incubated for 5 mins by HPLC analysis relative to control.
The target of test [4] is T1, Diacylglycerol O-acyltransferase 1 (Bos taurus). Nature of the test: Inhibition of ARAT in bovine RPE microsomes at 10 uM using retinol substrate in presence of dilauroyl-phosphatidyl choline incubated for 5 mins by HPLC analysis relative to control.
Test [5] is filed under the species Homo sapiens.
Description: Inhibition of transglutaminase in human keratinocytes in presence of 10 uM retinal relative to retinal alone

The term inhibition denotes the drop in the measured response relative to a control, in per cent. As to `C/C=C/C(=O)C1=C(C)CC(C)(C)CC1`, the inhibition in test [1] is 80%.
In the case of `CC1=CC(C)C(CO)C(C)C1` (stereo not drawn), the inhibition in test [2] worked out at 16%; in test [1], 18%.
In the case of `CC(C)=CCC/C(C)=C/CC/C(C)=C/CC/C(C)=C/CO`, the inhibition in test [2] is 77%; in test [3], 16%; in test [4], 38%; in test [1], 81%.
`CC(=O)c1cc2c(cc1C)C(C)(C)C(C)CC2(C)C` (stereo not drawn) displayed an inhibition in test [2] of 33%.
Turning to `CC1=CC[C@H](CC[C@H](C)CO)C1(C)C`, the results for the inhibition in test [2] and in test [1] were 75% and 70%, respectively.
In test [2], `CCOC(=O)C1=C(C)C=CCC1(C)C` showed an inhibition of 49%.
Consider `C/C=C/C(=O)C1=C(C)CCCC1(C)C`, for which the inhibition in test [4] was determined as 45%.
For `O=c1ccc2ccccc2[nH]1`, the IC20 in test [5] is 1.7 ×10⁻⁴ M.
As for `CCCCC/C=C\C/C=C\CCCCCCCC(=O)NCCCN(C)C`, the inhibition is 75% in test [2] and 69% in test [1].
Regarding `CCCCCCCCCCCCCC(=O)N(C)CC(=O)O`, the inhibition in test [2] was 11%; in test [1], 41%.
Consider `CCCCC/C=C\C/C=C\CCCCCCCC(=O)NCCO`, for which the inhibition in test [3] amounted to 20%. The compound further came in with an IC20 in test [5] of 1.48 ×10⁻⁵ M.
`C=CCCC(=O)/C=C/C1C(C)=CCCC1(C)C` (stereo not drawn): the inhibition in test [3] was determined as 17%.
As for `C/C=C/C(=O)C1=C(C)C=CCC1(C)C`, the inhibition in test [2] worked out at 79%; in test [3], 29%; in test [1], 70%.
Compound `CCCCCCCCCCCC1=NCCN1CCO` yielded an IC20 in test [5] of 2.69 ×10⁻⁷ M.
Take `CCC(=O)C=CC1C(C)=CCCC1(C)C` (stereo not drawn): the inhibition is 77% in test [2] and 67% in test [1].
Consider `O=C1C[C@@H](c2ccc(O)cc2)Oc2cc(O)cc(O)c21`, for which the inhibition in test [2] turned out to be 14%.
As to `CCCCCCCCCCCC(=O)NCCC[N+](C)(C)CC(=O)[O-]`, the inhibition in test [1] turned out to be 25%.
As to `C/C=C/C(=O)C1C(C)C=CCC1(C)C` (stereo not drawn), the inhibition was 95% in test [2] and 64% in test [3].
As for `O=c1c(O)c(-c2ccc(O)c(O)c2)oc2cc(O)cc(O)c12`, in test [5], the IC20 stood at 5.11 ×10⁻⁵ M.
With `CC(C)(O)CCCC1=CCC(C=O)CC1` (stereo not drawn), the IC20 in test [5] turned out to be 4 ×10⁻⁵ M.
In turn, `Clc1ccc(COC(Cn2ccnc2)c2ccc(Cl)cc2Cl)c(Cl)c1` (stereo not drawn) showed an IC20 in test [5] of 8.42 ×10⁻⁸ M.
